A short description of series [1]: Human liver microsomal stability assay (HLM). It counts as in vitro ADME. The settings on record: pooled liver microsomes, pH 7.4, 1 μM substrate, 37° C. An excerpt:
In vitro measurement of substrate metabolism can be determined using the microsomal cytochrome P450 mono-oxygenase system. This is a useful application in ranking clearance of a number of compounds by Phase I (including cytochrome P450) metabolism prior to in vivo assessment Measurement of intrinsic clearance using these methods also allows a comparison of species difference to be made to assist with translation of pharmacokinetic parameters from preclinical to clinical study.
Human and rat Liver microsomal assays were performed using pooled microsomes from the Pfizer Global Supply (BD Gentest™). Chemical reagents were purchased from commercial sources (Sigma-Aldrich) and drug entities synthesised at Pfizer Global Research. Incubation mixtures contained 50 mM phosphate buffer pH 7.4, 5 mM MgCl2, 5 mM isocitric acid and 1 unit/ml isocitric dehydrogenase. The microsomes were defrosted at room temperature and sufficient volumes added to give a final concentration of 0.5 nmol cytochrome P450/ml. Following the addition of 1 μM of substrate, the incubation was pre-incubated at 37° C. for 5 minutes. The reaction was then initiated by the addition of 1 mM NADP and incubation aliquots are taken over a 1 h time course. The reaction was subsequently stopped by addition of acetonitrile cooled on ice. […]
The intrinsic clearance in rat or human liver microsomes is calculated from: […]
Background: Liver microsomes are vesicles of endoplasmic reticulum, rich in cytochrome P450 enzymes.

A further series can be described thus: Dofetilide binding. The following applies: probe dofetilide.
The target of a further series is mu opioid receptor (UniProt P35372). In words: Mu-opioid receptor agonist activity. It counts as cell-based. As to the method:
The ability of agonists to cause recruitment of beta-arrestin to the mu opioid receptor was measured using DiscoveRx PathHunter technology. A pro-linked tagged mu-opioid receptor and an EA-tagged beta-arrestin were expressed in U2OS cells and beta-arrestin recruitment measured following the methodology in McGuinness et al., 2009 (J Biomol Screen 14:49-58, Characterizing cannabinoid CB2 receptor ligands using DiscoverRx PathHunter beta-arrestin assay—McGuinness D., Malikzay A., Visconti R., Lin K., Bayne M., Monsma F., Lunn C A.)
The ability of mu opioid receptor agonists to inhibit forskolin stimulated cAMP production was measured in CHO cells recombinantly expressing the mu opioid receptor, using alphascreen technology as described in Nickolls et al., 2005, with the additional inclusion of 50 uM forskolin in the assay buffer. (J Pharmacol Exp Ther 313; 1281-88, Functional selectivity of melanocortin 4 receptor peptide and non-peptide agonists: Evidence for ligand specific conformational states. Nickolls S A., Fleck B., Hoare S., Maki R.)
Functional activity at the mu-opioid receptors was determined using the electrically stimulated guinea pig isolated myenteric plexus preparation following the methodology of Hughes, J.; Kosterlitz, H. W. and Leslie, F. M. Br. J. Pharmacol. 1975, 53, 371.

Another series has as its system MDR. In words: MDR Papp permeability. It counts as in vitro ADME. The settings on record: not told.
Series [2] can be described thus: Lipophilicity (LogD), shake-flask octanol/buffer pH 7.4. It counts as physicochemical. The following applies: octanol / 0.1M phosphate buffer pH 7.4. From the text: LogD octanol (pH 7.4) is a measure of lipophilicity that accounts for both hydrophobic and hydrogen-bonding interactions of a given substrate. This assay is based on shake-flask methodology, performed in a fully automated manner in a 0.1M phosphate buffer pH7.4-octanol system.
After addition of the test substance in DMSO stock solution to the mixture and vigorous agitation followed by separation of the octanol and buffer layers by centrifugation, duplicate samples are removed from each layer and diluted prior to analysis by LC-MS/MS. Peak area is corrected for dilutions and the following equation used to calculate the logD (pH 7.4): […]
The duplicate logD values must be with 0.4 log units of each other and the positive controls must be within 0.2 log units of the known logD value.

Here are results for 2 compounds from patent US8957025B2, “Enkephalin analogues” (Pfizer Inc., priority 2011, dated 2015).

In general, microsomal CLint refers to the rate of metabolic loss divided by the concentration. Low values mean greater metabolic stability, high ones faster metabolism. For orientation: IC50 means the concentration needed to halve the response being measured. A low value points to higher potency. For orientation: Papp means a coefficient for how fast a substance crosses the barrier. A high value points to fast passage. What is called logD is the decadic logarithm of the distribution of all forms, ionised or not, between an organic phase and buffer at a given pH. Read a high logD as a more lipophilic compound.

For the compound `Cc1cc(O)cc(C)c1C[C@H](N)C(=O)N[C@H](C)C(=O)NC[C@H](N)Cc1ccccc1` [Example 2, 2,6-Dimethyl-L-tyrosyl-N-[(2R)-2-amino-3-phenylpropyl]-D-alaninamide], the microsomal CLint at 1 μM in series [1] was < 8 µL/min/mg. Further, the IC50 in “Dofetilide binding” is > 22000 nM; at mu opioid receptor, 6 nM. The compound also registered a Papp in the series with MDR of 0.6 ×10⁻⁶ cm/s. For the same compound, the log distribution coefficient (logD) in series [2] is -0.2.
The matching figures for `Cc1cc(O)cc(C)c1C[C@H](N)C(=O)N[C@H](C)C(=O)NC[C@@H](N)Cc1ccccc1` [Example 1, 2,6-Dimethyl-L-tyrosyl-N-[(2S)-2-amino-3-phenylpropyl]-D-alaninamide]: 8.4 µL/min/mg, > 22000 nM, 9.8 nM, 0.7 ×10⁻⁶ cm/s and 0.05.
